The text below walks through data of PubChem BioAssay (NCI).

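A five-concentration, 48-hour dose response in 96-well plates underlies each endpoint, interpolated linearly between surrounding concentrations. Abbreviation: GI50, concentration required for 50% inhibition of growth. TGI: total growth inhibition.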

Assay in all cases: NCI tumour cell line growth inhibition, 48 h
For experiment [1], the system named is A498 renal.
Experiment [2] concerns HCT-15 colon.
Experiment [3] relates to K-562 leukemia.
Experiment [4] relates to MALME-3M melanoma.
Experiment [5] relates to OVCAR-5 ovarian.
The subject of experiment [6] is RPMI-8226 leukemia.
For experiment [7], the system named is SK-MEL-5 melanoma.
In experiment [8] the test system is SN12C renal.
The subject of experiment [9] is SNB-19 CNS.
For experiment [10], the system named is UACC-62 melanoma.

Consider `CC(=O)O[C@H]1C(N(C)C(=O)c2ccccc2)CC[C@]2(C)C3CC[C@@]4(C)C(CC(O)[C@@H]4C(C)N(C)C)[C@@H]3CCC12` (some centres undefined), for which the TGI in experiment [1], in experiment [2], in experiment [3], in experiment [4], in experiment [5] and in [6] was more than 100 µM throughout. Besides, the TGI in experiment [7], in [8], in [9] and in experiment [10] was more than 100 µM throughout.
For the compound `CCOC(=O)[C@@H](C)C[C@H](Cc1ccccc1)NC(=O)c1csc([C@@H](C[C@H](C(C)C)N(C)C(=O)[C@@H](NC(=O)[C@H]2C[C@H](O[Si](C)(C)C(C)(C)C)CCN2C)C(C)C)OC(C)=O)n1`, the GI50 in experiment [1] is 0.167 µM; in experiment [2], 0.427 µM; in experiment [3] it was 0.17 µM; in [4], 0.215 µM; in experiment [5], 0.296 µM; in [6], 0.275 µM. For the same compound, the GI50 is 0.187 µM in experiment [7], 0.389 µM in experiment [8], 0.299 µM in experiment [9] and 0.0545 µM in experiment [10]. In addition, the TGI in experiment [1] was 0.89 µM; in [2] it was more than 5.02 µM; in experiment [3], more than 5.06 µM; in experiment [4], more than 8.33 µM; in experiment [5], more than 7.43 µM; in experiment [6] it was 2.25 µM. For the same compound, the TGI in [7] is 1.39 µM; in experiment [8], 6.42 µM; in experiment [9], more than 8.33 µM; in experiment [10] it was 3.58 µM.
As for `NC(N)=N/N=C(/c1nc2ccc([N+](=O)[O-])cc2[nH]c1=O)C(O)c1ccco1` (centres undefined), the TGI in experiment [1], in experiment [2], in experiment [3], in experiment [4], in [5] and in experiment [6] was more than 100 µM in each case. Further, the TGI in experiment [7], in experiment [8], in experiment [9] and in [10] was more than 100 µM throughout.
On to `CC(C)c1ccc(Cc2cnc(NC(=O)c3cc(Br)cs3)s2)cc1`, for which the GI50 was 0.242 µM in [1]; 0.789 µM in experiment [2]; 0.436 µM in experiment [3]; 3.44 µM in [4]; 4.95 µM in experiment [5]; 3.6 µM in [6]. For the same compound, the GI50 in experiment [7] was 1.9 µM; in [8] it was 4.21 µM; in experiment [9] it was 5.02 µM; in [10] it was 1.38 µM. For the same compound, the TGI in [1] is 4.67 µM; in [2] it was more than 100 µM; in [3], more than 100 µM; in experiment [4] it was more than 100 µM; in experiment [5], more than 100 µM; in experiment [6] it was more than 100 µM. For the same compound, the TGI in experiment [7], in experiment [8], in experiment [9] and in experiment [10] was more than 100 µM in each case.
`CCN(CC)c1ccc(N=Nc2ccc(-c3nc4cccnc4o3)cc2)cc1`: the TGI in [1], in [2], in experiment [3], in [4], in experiment [5] and in experiment [6] was more than 100 µM each time. Further, the TGI in [7], in experiment [8], in [9] and in [10] was more than 100 µM each time.
For `Clc1nc(Oc2ccccc2)nc(-c2cn(-c3ccccc3)c3ccccc23)n1`, the GI50 in [1] was more than 47.6 µM; in experiment [2], 5.38 µM; in experiment [3] it was 0.4 µM; in experiment [4], 1.89 µM; in [5], 22.9 µM; in experiment [6], 3.29 µM. Besides, the GI50 in experiment [7] is 14.3 µM; in experiment [8], 6.18 µM; in experiment [9], 19 µM; in experiment [10], 13.2 µM. Moreover, the TGI in [1] is more than 100 µM; in experiment [2], 18 µM; in experiment [3], 18.1 µM; in experiment [4], 4.82 µM; in experiment [5] it was 52.7 µM; in experiment [6], 21.5 µM. For the same compound, the TGI in experiment [7] amounted to 30.5 µM; in experiment [8], 20.1 µM; in experiment [9], 35.8 µM; in experiment [10], 26.6 µM.
Consider `CN1CCN(CCSC2Cc3cc(Cl)ccc3Sc3ccccc32)CC1` (centres undefined), for which the TGI in experiment [1] is 24.7 µM; in experiment [2], 12.2 µM; in experiment [3], 4.9 µM; in experiment [4], 5.8 µM; in experiment [5] it was 18.2 µM; in experiment [6], 5.34 µM. Besides, the TGI in experiment [7] worked out at 7.88 µM; in experiment [8], 23.7 µM; in experiment [9], 33.9 µM; in experiment [10], 3.63 µM.
Turning to `O=C(C(O)c1cn(Cc2ccccc2)c2ccccc12)N1CCCCC1` (centres undefined), the TGI in experiment [1], in [2], in experiment [3], in experiment [4], in experiment [5] and in experiment [6] was more than 100 µM throughout. For the same compound, the TGI in experiment [7], in experiment [8], in experiment [9] and in experiment [10] was more than 100 µM each time.
Turning to `CN1CCN(Cc2ccc(NC(=O)c3cncc(C#Cc4cnc(N)c5ccc(F)cc45)c3)cc2C(F)(F)F)CC1`, the GI50 in [1] was 0.902 µM; in experiment [2] it was 1.03 µM; in experiment [3], 0.0128 µM; in [4], 1.08 µM; in [5], 3.52 µM; in [6], 1.27 µM. Besides, the GI50 in [7] is 2.26 µM; in [8], 1.2 µM; in experiment [9] it was 4.39 µM; in experiment [10], 4 µM. Also, the TGI was 3.92 µM in experiment [1]; 4.62 µM in experiment [2]; 0.683 µM in experiment [3]; 3.93 µM in [4]; 7.51 µM in experiment [5]; 26.2 µM in experiment [6]. Further, the TGI in experiment [7] came to 6.68 µM; in experiment [8] it was 4.89 µM; in [9], 8.96 µM; in [10] it was 8.48 µM.
Consider `Nc1c(C(=O)c2ccccc2)sc2nc(-c3cccs3)ccc12`, for which the GI50 in experiment [1] was 0.185 µM; in [2] it was 0.0552 µM; in [3], 0.0467 µM; in [4] it was 1.19 µM; in experiment [5] it was 1.8 µM; in experiment [6], 0.513 µM. For the same compound, the GI50 was 0.292 µM in experiment [7], 0.692 µM in experiment [8], 0.432 µM in experiment [9] and 0.0788 µM in experiment [10]. For the same compound, the TGI in experiment [1] is 3.91 µM; in experiment [2], 10.4 µM; in [3] it was 20.5 µM; in [4] it was 12.6 µM; in [5], 14.5 µM; in [6], 17.6 µM. Also, the TGI in experiment [7] was determined as 3.13 µM; in [8] it was 27.4 µM; in [9], 10.3 µM; in [10], 10.4 µM.
Consider `CC(=O)Oc1cc(C)ccc1[C@]1(C)CC[C@H](C)/C1=C\Br`, for which the GI50 in experiment [1] is 5.2 µM; in experiment [2] it was 4.51 µM; in experiment [3] it was 3.71 µM; in experiment [4], 2.95 µM; in [5], 6.9 µM; in experiment [6], 2.71 µM. The GI50 in [7] is 3.32 µM; in experiment [8], 9.24 µM; in experiment [9] it was 3.97 µM; in [10] it was 5.98 µM. Besides, the TGI in [1] came out at 17.1 µM; in experiment [2], 19.2 µM; in [3], 11.4 µM; in experiment [4], 10.2 µM; in [5], 19.5 µM; in experiment [6], 8.09 µM. Besides, the TGI in experiment [7] was determined as 11.5 µM; in [8], 25.3 µM; in [9], 17.4 µM; in experiment [10], 19.7 µM.
Regarding `COc1ccc(/C=C/c2cc(OC)c(OC)c(OC)c2)cc1NC(=O)/C=C/c1ccc(F)cc1`, the GI50 in [1] is 0.0352 µM; in [2] it was 4 µM; in experiment [3], 1.44 µM; in experiment [4], 3.87 µM; in [5], 5.97 µM; in experiment [6], 2.1 µM. The GI50 in experiment [7] was 2.72 µM; in experiment [8] it was 5.56 µM; in [9], 4.37 µM; in [10], 3.32 µM. Moreover, the TGI in experiment [2], in experiment [3], in [4], in [5], in experiment [6] and in experiment [7] was more than 100 µM each time. In addition, the TGI in experiment [8], in experiment [9] and in experiment [10] was more than 100 µM throughout.
Consider `Cc1cc2nc3c(=O)n(C)c(=O)nc-3n(-c3ccc(Cl)cc3)c2cc1C`, for which the TGI was found to be 89.8 µM in experiment [1]; 21.9 µM in experiment [2]; 34.7 µM in experiment [3]; 22.3 µM in experiment [4]; 32.6 µM in experiment [5]; 26.4 µM in [6]. For the same compound, the TGI in experiment [7] was 4.14 µM; in [8], 18.6 µM; in [9], 47 µM; in experiment [10], 10.6 µM.
